Measurements: patent US7825068B2, “Heterocyclylethylcarboxamide derivatives” (Bayer Cropscience AG, priority 2005, dated 2010)

Key:
Alternaria brassicae = assay: In vivo test on Alternaria brassicae (preventive spray on radish plants); conditions: for efficacy against Alternaria brassicae: 330 ppm, comparison compounds of WO 2004/074280
Description: The active ingredient tested is prepared by potter homogenisation in a concentrated suspension type formulation at 100 g/l. […] Radish plants (Pernot variety) in starter cups, sown on a 50/50 peat soil-pozzolana substrate and grown at 18-20° C., are treated at the cotyledon stage by spraying with the aqueous suspension described above. Plants, used as controls, are treated with an aqueous solution not containing the active material. After 24 hours, the plants are contaminated by spraying them with an aqueous suspension of Alternaria brassicae spores (40,000 spores per cm^3). The spores are collected from a 12-13-day-old culture. The contaminated radish plants are incubated for 6-7 days at about 18° C., under a humid atmosphere. Grading is carried out 6 to 7 days after the contamination, in comparison with the control plants.

Pyrenophora teres = assay: In vivo test on Pyrenophora teres (preventive spray on barley plants); conditions: 330 ppm; comparison compounds of WO 2004/074280
Description: The active ingredient tested is prepared by potter homogenisation in a concentrated suspension type formulation at 100 g/l. […] Barley plants (Express variety) in starter cups, sown on a 50/50 peat soil-pozzolana substrate and grown at 12° C., are treated at the 1-leaf stage (10 cm tall) by spraying with the aqueous suspension described above. Plants, used as controls, are treated with an aqueous solution not containing the active material. After 24 hours, the plants are contaminated by spraying them with an aqueous suspension of Pyrenophora teres spores (12,000 spores per ml). The spores are collected from a 12-day-old culture. The contaminated barley plants are incubated for 24 hours at about 20° C. and at 100% relative humidity, and then for 12 days at 80% relative humidity. Grading is carried out 12 days after the contamination, in comparison with the control plants.

| SMILES | efficacy against Alternaria brassicae (Alternaria brassicae) | efficacy against Pyrenophora teres (Pyrenophora teres) | protection (good (at least 50%) to total) (Alternaria brassicae; dose of 110 ppm, radish plants (Pernot variety), grading 6 to 7 days after contamination, in comparison with control plants) |
| --- | --- | --- | --- |
| Cc1onc(-c2ccccc2)c1C(=O)NCCc1ncc(C(F)(F)F)cc1Cl [Compound M3, N-{2-[3-chloro-5-(trifluoromethyl)pyridin-2-yl]ethyl}-5-methyl-3-phenylisoxazole-4-carboxamide] | no efficacy | no efficacy | – |
| CSc1sc(C(=O)NCCc2ncc(C(F)(F)F)cc2Cl)c(I)c1S(=O)(=O)C(C)C [Compound C10, N-{2-[3-chloro-5-(trifluoromethyl)pyridin-2-yl]ethyl}-3-iodo-4-(isopropylsulfonyl)-5-(methylthio)thiophene-2-carboxamide] | no efficacy | no efficacy | – |
| CC1=C(C(=O)NCCc2ncc(Cl)cc2F)SCCO1 [Compound V9, N-[2-(5-chloro-3-fluoropyridin-2-yl)ethyl]-2-methyl-5,6-dihydro-1,4-oxathiine-3-carboxamide] | no efficacy | no efficacy | – |
| O=C(NCCc1ccc(Cl)cn1)c1cccnc1Cl [Compound R32, 2-chloro-N-[2-(5-chloropyridin-2-yl)ethyl]nicotinamide] | no efficacy | no efficacy | – |
| O=C(NCCc1ncc(C(F)(F)F)cc1Cl)C1CCN(C(=O)OCc2ccccc2)CC1 [Compound T1, benzyl 4-[({2-[3-chloro-5-(trifluoromethyl)pyridin-2-yl]ethyl}amino)carbonyl]piperidine-1-carboxylate] | no efficacy | no efficacy | – |
| Cc1cc(C(=O)NCCc2cn(C)nc2C(F)(F)F)c(C(F)(F)F)o1 [Compound J-3] | – | – | at least 50% |
| Cn1cccc1C(=O)NCCc1ncc(C(F)(F)F)cc1Cl [Compound F1, N-{2-[3-chloro-5-(trifluoromethyl)pyridin-2-yl]ethyl}-1-methyl-1H-pyrrole-2-carboxamide] | no efficacy | no efficacy | – |
| Cc1cc(C(=O)NCCc2nc(F)c(F)cc2F)c(C)o1 [Compound B17, 2,5-dimethyl-N-[2-(3,5,6-trifluoropyridin-2-yl)ethyl]-3-furamide] | no efficacy | no efficacy | – |
| CC1=C(C(=O)NCCc2nc(Cl)ccc2Cl)SCCO1 [Compound V10, N-[2-(3,6-dichloropyridin-2-yl)ethyl]-2-methyl-5,6-dihydro-1,4-oxathiine-3-carboxamide] | no efficacy | no efficacy | – |
| Cc1nc(-c2ccccc2)sc1C(=O)NCCc1ncc(C(F)(F)F)cc1Cl [Compound H3, N-{2-[3-chloro-5-(trifluoromethyl)pyridin-2-yl]ethyl}-4-methyl-2-phenyl-1,3-thiazole-5-carboxamide] | no efficacy | no efficacy | – |
| Cc1c(C(=O)NCCc2ncc(C(F)(F)F)cc2Cl)cnn1-c1ccccc1 [Compound J9, N-{2-[3-chloro-5-(trifluoromethyl)pyridin-2-yl]ethyl}-5-methyl-1-phenyl-1H-pyrazole-4-carboxamide] | no efficacy | no efficacy | – |
